Each compound was assayed against T1, Human CD73 (Homo sapiens, UniProt P21589) (assay: CD73 Enzyme Assay). Details: not given.
T1 construct: purchased R&D Systems; host or cells: CHO cells
T1 sequence (P21589 27-549): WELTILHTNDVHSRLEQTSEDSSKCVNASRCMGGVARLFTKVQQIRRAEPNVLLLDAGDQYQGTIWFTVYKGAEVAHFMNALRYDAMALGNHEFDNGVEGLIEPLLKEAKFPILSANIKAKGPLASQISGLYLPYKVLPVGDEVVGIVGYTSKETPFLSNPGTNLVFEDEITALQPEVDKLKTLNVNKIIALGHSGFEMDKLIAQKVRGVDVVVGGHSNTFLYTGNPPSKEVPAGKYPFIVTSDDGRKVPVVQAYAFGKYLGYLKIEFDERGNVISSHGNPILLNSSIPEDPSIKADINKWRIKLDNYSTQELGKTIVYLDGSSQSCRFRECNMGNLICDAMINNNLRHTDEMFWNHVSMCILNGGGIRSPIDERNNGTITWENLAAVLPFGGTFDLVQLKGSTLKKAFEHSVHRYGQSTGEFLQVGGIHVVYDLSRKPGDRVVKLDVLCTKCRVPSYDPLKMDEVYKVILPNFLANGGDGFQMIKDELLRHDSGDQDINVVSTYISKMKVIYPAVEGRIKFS
Assay type: biochemical

Row | Compound | IC50 [µM]
1 | CCOP(=O)(COC[C@H]1O[C@@H](n2ccc3c(NC4CCCC4)nc(Cl)nc32)[C@H](O)[C@@H]1O)OCC [Compound 185] | > 1

Same assay, conditions: 0.25 nM hCD73, 25 μM AMP, kinetic read at 360 nm; read-out: CD73 Enzyme Assay IC50

Row | Compound | IC50 [µM]
2 | O=P(O)(O)COC[C@H]1O[C@@H](n2cnc3c(NC4CCCCC4)ncnc32)[C@H](O)[C@@H]1O [Compound 35, [(2R,3S,4R,5R)-5-[6-(cyclohexylamino)-purin-9-yl]-3,4-dihydroxy-tetrahydro-furan-2-yl]methoxy-methylphosphonic acid] | 0.1 to 1
3 | O=P(O)(O)COC[C@H]1O[C@@H](n2cnc3c2ncn2cnnc32)[C@H](O)[C@@H]1O [Compound 37] | > 1
4 | O=P(O)(O)COC[C@H]1O[C@@H](n2cnc3c2ncn2ccnc32)[C@H](O)[C@@H]1O [Compound 38] | > 1
5 | O=P(O)(O)COC[C@H]1O[C@@H](n2cnc3c(NCc4ccccc4)nc(C4CC4)nc32)[C@H](O)[C@@H]1O [Compound 39, [(2R,3S,4R,5R)-5-[6-(benzylamino)-2-cyclopropyl-purin-9-yl]-3,4-dihydroxy-tetrahydrofuran-2-yl]-methoxymethyl phos-phonic acid] | > 1
6 | C=Cc1nc(NC(C)C)c2ncn([C@@H]3O[C@H](COCP(=O)(O)O)[C@@H](O)[C@H]3O)c2n1 [Compound 40, [(2R,3S,4R,5R)-3,4-dihydroxy-5-[6-(iso-propylamino)-2-vinyl-purin-9-yl]tetrahydro-furan-2-yl]methoxy-methylphosphonic acid] | 0.1 to 1
7 | CCc1nc(NC(C)C)c2ncn([C@@H]3O[C@H](COCP(=O)(O)O)[C@@H](O)[C@H]3O)c2n1 [Compound 41, [(2R,3S,4R,5R)-5-[2-ethyl-6-(isopropyl-amino)purin-9-yl]-3,4-dihydroxy-tetrahydro-furan-2-yl]methoxy-methylphosphonic acid] | > 1
8 | O=c1c2ncn([C@@H]3O[C@H](COCP(=O)(O)O)[C@@H](O)[C@H]3O)c2ncn1Cc1ccccc1 [Compound 42, [(2R,3S,4R,5R)-5-(1-benzyl-6-oxo-purin-9-yl)-3,4-dihydroxy-tetrahydrofuran-2-yl]-methoxymethylphos-phonic acid] | > 1
9 | CC(C)Oc1ncnc2c1ncn2[C@@H]1O[C@H](COCP(=O)(O)O)[C@@H](O)[C@H]1O [Compound 44, [(2R,3S,4R,5R)-3,4-dihydroxy-5-(6-isopropoxypurin-9-yl)tetrahydrofuran-2-yl]methoxymethylphosphonic acid] | > 1
10 | O=P(O)(O)COC[C@H]1O[C@@H](n2cnc3c(N4CCCC4c4ccccc4)ncnc32)[C@H](O)[C@@H]1O (stereo partly drawn) [Compound 45, [(2R,3S,4R,5R)-3,4-dihydroxy-5-[6-(2-phenylpyrrolidin-1-yl)-purin-9-yl]tetrahydro-furan-2-yl]methoxy-methylphosphonic acid] | 0.1 to 1
11 | N#Cc1ncnc2c1ncn2[C@@H]1O[C@H](COCP(=O)(O)O)[C@@H](O)[C@H]1O [Compound 47, [(2R,3S,4R,5R)-5-(6-cyanopurin-9-yl)-3,4-dihydroxy-tetrahydro-furan-2-yl]methoxy-methylphosphonic acid] | > 1
12 | O=P(O)(O)COC[C@H]1O[C@@H](n2cnc3c(O)ncnc32)[C@H](O)[C@@H]1O [Compound 48] | > 1
13 | C[C@H](Nc1ncnc2c1ncn2[C@@H]1O[C@H](COCP(=O)(O)O)[C@@H](O)[C@H]1O)c1cccc(F)c1 [Compound 50, [(2R,3S,4R,5R)-5-[6-[[(1S)-1-(3-fluoro-phenyl)ethyl]amino]-purin-9-yl]-3,4-dihydroxy-tetrahydro-furan-2-yl]methoxy-methylphosphonic acid] | 0.1 to 1
14 | C[C@H](Nc1ncnc2c1ncn2[C@@H]1O[C@H](COCP(=O)(O)O)[C@@H](O)[C@H]1O)c1ccccc1F [Compound 51, [(2R,3S,4R,5R)-5-[6-[[(1S)-1-(2-fluoro-phenyl)ethyl]amino]-purin-9-yl]-3,4-dihydroxy-tetrahydro-furan-2-yl]methoxy-methylphosphonic acid] | 0.1 to 1
15 | O=P(O)(O)COC[C@H]1O[C@@H](n2cnc3c(-c4ccccc4F)ncnc32)[C@H](O)[C@@H]1O [Compound 53, [(2R,3S,4R,5R)-5-[6-(2-fluorophenyl)purin-9-yl]-3,4-dihydroxy-tetrahydrofuran-2-yl]methoxymethyl-phosphonic acid] | > 1
16 | N#Cc1cccc(CNc2ncnc3c2ncn3[C@@H]2O[C@H](COCP(=O)(O)O)[C@@H](O)[C@H]2O)c1 [Compound 58, [(2R,3S,4R,5R)-5-[6-[(3-cyanophenyl)-methylamino]purin-9-yl]-3,4-dihydroxy-tetrahydrofuran-2-yl]-methoxymethylphos-phonic acid] | > 1
17 | NS(=O)(=O)c1cccc(CNc2ncnc3c2ncn3[C@@H]2O[C@H](COCP(=O)(O)O)[C@@H](O)[C@H]2O)c1 [Compound 63] | > 1
18 | O=P(O)(O)COC[C@H]1O[C@@H](n2cnc3c(NCc4cccc(CO)c4)ncnc32)[C@H](O)[C@@H]1O [Compound 64, [(2R,3S,4R,5R)-3,4-dihydroxy-5-[6-[[3-(hydroxymethyl)-phenyl]methylamino]-purin-9-yl]tetrahydro-furan-2-yl]methoxy-methylphosphonic acid] | > 1
19 | NC(=O)c1cccc(CNc2ncnc3c2ncn3[C@@H]2O[C@H](COCP(=O)(O)O)[C@@H](O)[C@H]2O)c1 [Compound 65, [(2R,3S,4R,5R)-5-[6-[(3-carbamoylphenyl)-methylamino]purin-9-yl]-3,4-dihydroxy-tetrahydrofuran-2-yl]-methoxymethylphos-phonic acid] | > 1
20 | CS(=O)(=O)c1cccc(CNc2ncnc3c2ncn3[C@@H]2O[C@H](COCP(=O)(O)O)[C@@H](O)[C@H]2O)c1 [Compound 66] | > 1
21 | CNc1nc(C#N)nc2c1ccn2[C@@H]1O[C@H](COCP(=O)(O)O)[C@@H](O)[C@H]1O [Compound 118, [(2R,3S,4R,5R)-5-[2-cyano-4-(methyl-amino)pyrrolo[2,3-d]-pyrimidin-7-yl]-3,4-dihydroxy-tetrahydro-furan-2-yl]methoxy-methylphosphonic acid] | 0.1 to 1
22 | O=P(O)(O)C(SC[C@H]1O[C@@H](n2cnc3c(NCc4ccccc4)ncnc32)[C@H](O)[C@@H]1O)c1ccccc1 (stereo partly drawn) [Compound 149, [[(2S,3S,5R)-5-[6-(benzylamino)purin-9-yl]-3,4-dihydroxy-tetrahydrofuran-2-yl]methylsulfanyl-phenylmethyl]phos-phonic acid] | > 1
23 | O=P(O)(O)C(c1ccccc1)S(=O)(=O)C[C@H]1O[C@@H](n2cnc3c(NCc4ccccc4)ncnc32)[C@H](O)[C@@H]1O (stereo partly drawn) [Compound 150, [[(2S,3S,5R)-5-[6-(benzylamino)purin-9-yl]-3,4-dihydroxy-tetrahydrofuran-2-yl]methylsulfonyl-phenylmethyl]phos-phonic acid] | > 1
24 | O=P(O)(O)CSC[C@H]1O[C@@H](n2cnc3c(NCc4ccccc4)ncnc32)[C@H](O)[C@@H]1O [Compound 151, [(2S,3S,5R)-5-[6-(benzylamino)purin-9-yl]-3,4-dihydroxy-tetrahydrofuran-2-yl]methylsulfanyl-methylphosphonic acid] | > 1
25 | CC(C)(C)C(=O)OCOP(=O)(CS(=O)(=O)C[C@H]1O[C@@H](n2ccc3c(NC4CCCC4)nc(Cl)nc32)[C@H](O)[C@@H]1O)OCOC(=O)C(C)(C)C [Compound 165, (((((((2S,3S,4R,5R)-5-(2-chloro-4-(cyclopentylamino)-7H-pyrrolo[2,3-d]pyrimidin-7-yl)-3,4-dihydroxytetrahydrofuran-2-yl)methyl)sulfonyl)methyl)phosphoryl)bis(oxy))bis(methylene) bis(2,2-dimethylpropanoate)] | 0.1 to 1
26 | CC(C)(C)C(=O)OCOP(=O)(C[S+]([O-])C[C@H]1O[C@@H](n2ccc3c(NC4CCCC4)nc(Cl)nc32)[C@H](O)[C@@H]1O)OCOC(=O)C(C)(C)C (stereo partly drawn) [Compound 166, [[(2S,3S,4R,5R)-5-[2-chloro-4-(cyclopentyl-amino)pyrrolo[2,3-d]-pyrimidin-7-yl]-3,4-dihydroxy-tetrahydro-furan-2-yl]methyl-sulfinylmethyl-(2,2-dimethylpropanoyloxy-methoxy)phosphoryl]-oxymethyl 2,2-dimethylpropanoate] | > 1
27 | CC(C)OC(=O)OCOP(=O)(COC[C@H]1O[C@@H](n2ccc3c(N4CC5CCCC5C4)nc(Cl)nc32)[C@H](O)[C@@H]1O)OCOC(=O)OC(C)C (stereo partly drawn) [Compound 208, [[(2R,3S,4R,5R)-5-[4-(3,3a,4,5,6,6a-hexa-hydro-1H-cyclopenta-[c]pyrrol-2-yl)-2-chloro-pyrrolo[2,3-d]-pyrimidin-7-yl]-3,4-dihydroxy-tetrahydro-furan-2-yl]methoxy-methyl-(isopropoxy-carbonyloxymethoxy)-phosphorl]oxymethyl isopropyl carbonate] | > 1
28 | N#Cc1nc(NC2CCCC2)c2c(C#N)cn([C@@H]3O[C@H](COCP(=O)(O)O)[C@@H](O)[C@H]3O)c2n1 [Compound 210, [(2R,3S,4R,5R)-5-[2,5-dicyano-4-(cyclopentyl-amino)pyrrolo[2,3-d]-pyrimidin-7-yl]-3,4-dihydroxy-tetrahydro-furan-2-yl]methoxy-methylphosphonic acid] | 0.1 to 1

Same assay, conditions: read-out: CD73 Enzyme Assay IC50

Row | Compound | IC50 [µM]
29 | NS(=O)(=O)c1ccc(CNc2ncnc3c2ncn3[C@@H]2O[C@H](COCP(=O)(O)O)[C@@H](O)[C@H]2O)cc1 [Compound 59] | > 1
30 | O=P(O)(O)CS(=O)(=O)C[C@H]1O[C@@H](n2cnc3c(NCc4ccccc4)ncnc32)[C@H](O)[C@@H]1O [Compound 148] | > 1

Reference: patent publication US11591355B2 (Peloton Therapeutics, Inc., priority 2017, dated 2023)
